{"source": "ChEMBL document CHEMBL1158436", "about": "“In vitro inhibition of human erythrocyte glutathione reductase by some new organic nitrates” (Bioorg Med Chem Lett, 2009)", "data": [{"target": "T1, Glutathione reductase, mitochondrial (Homo sapiens, UniProt P00390)", "T1 sequence (P00390 whole entry)": "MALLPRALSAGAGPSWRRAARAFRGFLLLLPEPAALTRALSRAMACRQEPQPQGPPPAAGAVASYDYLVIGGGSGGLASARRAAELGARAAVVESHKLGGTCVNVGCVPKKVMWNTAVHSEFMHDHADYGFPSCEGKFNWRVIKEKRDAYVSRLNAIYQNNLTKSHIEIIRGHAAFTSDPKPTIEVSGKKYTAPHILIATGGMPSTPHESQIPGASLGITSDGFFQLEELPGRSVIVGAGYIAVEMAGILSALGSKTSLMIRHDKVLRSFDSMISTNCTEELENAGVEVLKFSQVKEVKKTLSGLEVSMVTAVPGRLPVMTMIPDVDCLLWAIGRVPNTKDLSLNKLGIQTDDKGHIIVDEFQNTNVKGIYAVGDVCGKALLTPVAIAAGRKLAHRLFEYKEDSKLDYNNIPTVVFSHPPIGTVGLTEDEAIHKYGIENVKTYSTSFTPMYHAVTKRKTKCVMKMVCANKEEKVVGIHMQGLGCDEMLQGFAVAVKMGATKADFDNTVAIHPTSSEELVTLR", "experiment": "Inhibition of human erythrocyte glutathione reductase", "units": {"IC50": "µM", "Ki": "µM"}, "values": [{"smiles": "O=[N+]([O-])O[C@@H](CO)c1ccccc1", "note": "(single isomer, unassigned)", "IC50": 16, "Ki": 25.6}, {"smiles": "O=[N+]([O-])O[C@H]1CCCCCC[C@@H]1O", "IC50": 14.2, "Ki": 21.9}, {"smiles": "O=[N+]([O-])O[C@@H]1CC[C@H](Br)[C@@H]2CC[C@H]1O2", "IC50": 11, "Ki": 21.5}, {"smiles": "O=[N+]([O-])O[C@H]1CC=CC[C@@H]1O", "note": "(racemic)", "IC50": 23, "Ki": 35.1}, {"smiles": "O=[N+]([O-])O[C@H]1CC/C=C\\CC[C@@H]1O", "note": "(racemic)", "IC50": 29, "Ki": 44.3}, {"smiles": "O=[N+]([O-])O[C@H]1CC2CCC1[C@@H]2O", "note": "(stereo partly drawn)", "IC50": 7.13, "Ki": 13.1}, {"smiles": "O=[N+]([O-])O[C@H]1CCCC[C@@H]1O", "IC50": 21, "Ki": 43.7}, {"smiles": "O=[N+]([O-])O[C@@H]1CC2CCC1[C@@H]2O", "note": "(stereo partly drawn)", "IC50": 6.81, "Ki": 11.7}, {"smiles": "O=[N+]([O-])OC1CC2c3ccccc3C1C2O", "note": "(stereo not drawn)", "IC50": 10.3, "Ki": 18.8}]}]}
